Our source for the EC50 and IC50 values is patent publication US7041698B2, “Hepatitis C virus inhibitors” (Bristol-Myers Squibb Company, priority 2002, dated 2006).

Where two headings read alike, the source gives them in different places. Where only a bound is given, the exact number is not on record here.

Assay [1] has as its system HCV replicon in Huh7 cells. The assay can be described thus: HCV replicon cell-based assay. Set-up: species or system HCV strain 1B. The note with it: Hepatitis C virus, Huh-7, 96 h, HCV replicon, 4 days, read-out: EC50 range. Summed up: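 Huh7 cells carrying a genotype 1b subgenomic replicon (NS3-NS5B, neo) treated 4 days at 37° C with compound (0.5% DMSO final). NS3 protease activity read in lysates with 10 μM FRET peptide (340/490 nm, kinetic), giving EC50. Confirmed by Taqman qRT-PCR of HCV RNA and a Renilla luciferase replicon.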

The target in assay [2] is T1, HCV NS3/4A protease complex (UniProt P27958, C1454S/C1711G, species not given).
T1 construct: fused on or other part: Three-lysine solubilising tail at the C-terminus of NS4A
The assay can be described thus: Recombinant HCV NS3/4A protease complex FRET peptide assay (strain not stated). It is filed as biochemical.

Setting [3] is: HCV NS3/4A protease enzyme assay, read-out: IC50 range.

With `C=C[C@@H]1C[C@]1(NC(=O)[C@@H]1C[C@@H](OC(=O)Nc2cc(C(F)(F)F)ccc2-n2cccn2)CN1C(=O)[C@@H](NC(=O)OC(C)(C)C)C(C)(C)C)C(=O)NS(=O)(=O)C1CC1` [Compound 100, BocNH-P3(t-BuGly)-P2(Hyp(O—CO(NH—(5-trifluoromethyl-2-pyrazol-1-yl-phenyl))))-P1(1R,2S VinylAcca)—CONHSO2Cyclopropane], the concentration giving a half-maximal response (EC50) in assay [1] is below 100 nM. The IC50 in assay [2] (setting [3]) is below 100 nM.
Regarding `C=CC1C[C@]1(NC(=O)[C@@H]1C[C@@H](OC(=O)Nc2ccccc2Cl)CN1C(=O)[C@@H](NC(=O)OC(C)(C)C)C(C)(C)C)C(=O)NS(=O)(=O)C1CC1` (stereo partly drawn) [Compound 53, BocNH-P3(t-BuGly)-P2(Hyp(O—CO(NH—(2-chloro-phenyl))))-P1(1R,2S VinylAcca)—CONHSO2Cyclopropane], in assay [1], the EC50 lay in the range of 1000 to 10000 nM. Moreover, the IC50 in assay [2] (setting [3]) was below 100 nM.
As for `C=CC1C[C@]1(NC(=O)[C@@H]1C[C@@H](OC(=O)Nc2ccccc2Br)CN1C(=O)[C@@H](NC(=O)OC(C)(C)C)C(C)(C)C)C(=O)NS(=O)(=O)C1CC1` (stereo partly drawn) [Compound 33, BocNH-P3(t-BuGly)-P2(Hyp(O—CO(NH—(2-bromo-phenyl))))-P1(1R,2S VinylAcca)—CONHSO2Cyclopropane], in assay [1], the EC50 lay in the range of 100 to 1000 nM. For the same compound, the IC50 in assay [2] (setting [3]) was in the range of 100 to 1000 nM.
Take `C=CC1C[C@]1(NC(=O)[C@@H]1C[C@@H](OC(=O)Nc2c(C)cccc2Cl)CN1C(=O)[C@@H](NC(=O)OC(C)(C)C)C(C)(C)C)C(=O)NS(=O)(=O)C1CC1` (stereo partly drawn) [Compound 63, BocNH-P3(t-BuGly)-P2(Hyp(O—CO(NH—(2-chloro-6-methyl))))-P1(1R,2S VinylAcca)—CONHSO2Cyclopropane]: in assay [1], the concentration giving a half-maximal response (EC50) was 1000 to 10000 nM. The IC50 in assay [2] (setting [3]) lay within 100 to 1000 nM.
On the same counts, the results for `C=CC1C[C@]1(NC(=O)[C@@H]1C[C@@H](OC(=O)Nc2cc(OC)ccc2-n2cccn2)CN1C(=O)[C@@H](NC(=O)OC(C)(C)C)C(C)(C)C)C(=O)NS(=O)(=O)C1CC1` (stereo partly drawn) [Compound 95, BocNH-P3(t-BuGly)-P2(Hyp(O—CO(NH—(5-Methoxy-2-pyrazol-1-yl-phenyl))))-P1(1R,2S VinylAcca)—CONHSO2Cyclopropane] are 100 to 1000 nM and below 100 nM.
Turning to `C=CC1C[C@]1(NC(=O)[C@@H]1C[C@@H](OC(=O)Nc2ccccc2[N+](=O)[O-])CN1C(=O)[C@@H](NC(=O)OC(C)(C)C)C(C)(C)C)C(=O)NS(=O)(=O)C1CC1` (stereo partly drawn) [Compound 60, BocNH-P3(t-BuGly)-P2(Hyp(O—CO(NH—(2-nitro-phenyl))))-P1(1R,2S VinylAcca)—CONHSO2Cyclopropane], the EC50 in assay [1] fell in the range of 100 to 1000 nM. The IC50 in assay [2] (setting [3]) is below 100 nM.
`C=CC1C[C@]1(NC(=O)[C@@H]1C[C@@H](OC(=O)NCc2ccc(OC)cc2)CN1C(=O)[C@@H](NC(=O)OC(C)(C)C)C(C)(C)C)C(=O)NS(=O)(=O)C1CC1` (stereo partly drawn) [Compound 11, BocNH-P3(t-BuGly)-P2(Hyp(O—CO(NH—(4-methoxy-benzyl))))-P1(1R,2S VinylAcca)—CONHSO2Cyclopropane]: the half-maximal effective concentration (EC50) in assay [1] fell in the range of 1000 to 10000 nM. Further, the IC50 in assay [2] (setting [3]) was 100 to 1000 nM.
Take `C=CC1C[C@]1(NC(=O)[C@@H]1C[C@@H](OC(=O)Nc2cc(Cl)cc(Cl)c2)CN1C(=O)[C@@H](NC(=O)OC(C)(C)C)C(C)(C)C)C(=O)NS(=O)(=O)C1CC1` (stereo partly drawn) [Compound 23, BocNH-P3(t-BuGly)-P2(Hyp(O—CO(NH—(3,5-dichloro-phenyl))))-P1(1R,2S VinylAcca)—CONHSO2Cyclopropane]: in assay [1], the 50% effective concentration (EC50) fell in the range of 100 to 1000 nM. For the same compound, in assay [2] (read-out: IC50 range, HCV NS3/4A protease enzyme assay), the IC50 was below 100 nM.
Consider `C=CC1C[C@]1(NC(=O)[C@@H]1C[C@@H](OC(=O)Nc2cc(C(C)=O)ccc2N2CCCCC2)CN1C(=O)[C@@H](NC(=O)OC(C)(C)C)C(C)(C)C)C(=O)NS(=O)(=O)C1CC1` (stereo partly drawn) [Compound 80, BocNH-P3(t-BuGly)-P2(Hyp(O—CO(NH-1-(2-piperidino-5-acetylphenyl))))-P1(1R,2S VinylAcca)—CONHSO2Cyclopropane], for which the EC50 in assay [1] was below 100 nM. Moreover, the IC50 in assay [2] (setting [3]) was below 100 nM.
Turning to `C=CC1C[C@]1(NC(=O)[C@@H]1C[C@@H](OC(=O)Nc2cc(C)nn2-c2ccccc2)CN1C(=O)[C@@H](NC(=O)OC(C)(C)C)C(C)(C)C)C(=O)NS(=O)(=O)C1CC1` (stereo partly drawn) [Compound 73, BocNH-P3(t-BuGly)-P2(Hyp(O—CO(NH—(5-Methyl-2-phenyl-4H-pyrazol-3-yl))))-P1(1R,2S VinylAcca)—CONHSO2 Cyclopropane], the EC50 in assay [1] was above 10000 nM. Moreover, the IC50 in assay [2] (setting [3]) is below 100 nM.
On to `C=CCN(CC=C)C(=O)O[C@@H]1C[C@@H](C(=O)N[C@]2(C(=O)NS(=O)(=O)C3CC3)CC2C=C)N(C(=O)[C@@H](NC(=O)OC(C)(C)C)C(C)(C)C)C1` (stereo partly drawn) [Compound 5, BocNH-P3(t-BuGly)-P2(Hyp(O—CO(N,N-diallyl)))-P1(1R,2S VinylAcca)—CONHSO2Cyclopropane], for which the EC50 in assay [1] lay within 1000 to 10000 nM. Also, the IC50 in assay [2] (setting [3]) is 100 to 1000 nM.
For `C=CC1C[C@]1(NC(=O)[C@@H]1C[C@@H](OC(=O)Nc2ccccc2Oc2ccccc2)CN1C(=O)[C@@H](NC(=O)OC(C)(C)C)C(C)(C)C)C(=O)NS(=O)(=O)C1CC1` (stereo partly drawn) [Compound 67, BocNH-P3(t-BuGly)-P2(Hyp(O—CO(NH—(2-phenoxy-phenyl))))-P1(1R,2S VinylAcca)—CONHSO2Cyclopropane], the 50% effective concentration (EC50) in assay [1] is 100 to 1000 nM. Further, the IC50 in assay [2] (setting [3]) is below 100 nM.
On to `C=CC1C[C@]1(NC(=O)[C@@H]1C[C@@H](OC(=O)Nc2ccccc2C(=O)O)CN1C(=O)[C@@H](NC(=O)OC(C)(C)C)C(C)(C)C)C(=O)NS(=O)(=O)C1CC1` (stereo partly drawn) [Compound 69, BocNH-P3(t-BuGly)-P2(Hyp(O—CO(NH—(2-benzoic acid))))-P1(1R,2S VinylAcca)—CONHSO2Cyclopropane], for which, in assay [1], the EC50 was above 10000 nM. In assay [2] (setting [3]), the IC50 lay in the range of 100 to 1000 nM.
On the same counts, the results for `C=CC1C[C@]1(NC(=O)[C@@H]1C[C@@H](OC(=O)Nc2cc(C(F)(F)F)ccc2N2CCCC2)CN1C(=O)[C@@H](NC(=O)OC(C)(C)C)C(C)(C)C)C(=O)NS(=O)(=O)C1CC1` (stereo partly drawn) [Compound 84, BocNH-P3(t-BuGly)-P2(Hyp(O—CO(NH—(2-Pyrrolidin-1-yl-5-trifluoromethyl-phenyl))))-P1(1R,2S VinylAcca)—CONHSO2Cyclopropane] are 100 to 1000 nM and below 100 nM.
Take `C=CC1C[C@]1(NC(=O)[C@@H]1C[C@@H](OC(=O)Nc2ccccc2-n2cccn2)CN1C(=O)[C@@H](NC(=O)OC(C)(C)C)C(C)(C)C)C(=O)NS(=O)(=O)C1CC1` (stereo partly drawn) [Compound 89, BocNH-P3(t-BuGly)-P2(Hyp(O—CO(NH—(2-Pyrazol-1-yl-phenyl))))-P1(1R,2S VinylAcca)—CONHSO2Cyclopropane]: the concentration for a half-maximal effect (EC50) in assay [1] fell in the range of 100 to 1000 nM. The IC50 in assay [2] (setting [3]) is below 100 nM.
As for `C=CC1C[C@]1(NC(=O)[C@@H]1C[C@@H](OC(=O)Nc2ccccc2N2CCCCC2)CN1C(=O)[C@@H](NC(=O)OC(C)(C)C)C(C)(C)C)C(=O)NS(=O)(=O)C1CC1` (stereo partly drawn) [Compound 90, BocNH-P3(t-BuGly)-P2(Hyp(O—CO(NH—(2-Piperidin-1-yl-phenyl))))-P1(1R,2S VinylAcca)—CONHSO2Cyclopropane], the EC50 in assay [1] was below 100 nM. Further, the IC50 in assay [2] (setting [3]) was below 100 nM.
As to `C=CC1C[C@]1(NC(=O)[C@@H]1C[C@@H](OC(=O)Nc2ccc(F)c(F)c2F)CN1C(=O)[C@@H](NC(=O)OC(C)(C)C)C(C)(C)C)C(=O)NS(=O)(=O)C1CC1` (stereo partly drawn) [Compound 16, BocNH-P3(t-BuGly)-P2(Hyp(O—CO(NH—(2,3,4-trifluoro-phenyl))))-P1(1R,2S VinylAcca)—CONHSO2Cyclopropane], the EC50 in assay [1] was in the range of 1000 to 10000 nM. Further, the IC50 in assay [2] (setting [3]) was in the range of 100 to 1000 nM.
`C=CC1C[C@]1(NC(=O)[C@@H]1C[C@@H](OC(=O)Nc2ccccc2OC)CN1C(=O)[C@@H](NC(=O)OC(C)(C)C)C(C)(C)C)C(=O)NS(=O)(=O)C1CC1` (stereo partly drawn) [Compound 55, BocNH-P3(t-BuGly)-P2(Hyp(O—CO(NH—(2-methoxy-phenyl))))-P1(1R,2S VinylAcca)—CONHSO2Cyclopropane]: the EC50 in assay [1] is 100 to 1000 nM. Further, in assay [2] (setting [3]), the IC50 was below 100 nM.
On to `C=CC1C[C@]1(NC(=O)[C@@H]1C[C@@H](OC(=O)Nc2cc(C)ccc2Cl)CN1C(=O)[C@@H](NC(=O)OC(C)(C)C)C(C)(C)C)C(=O)NS(=O)(=O)C1CC1` (stereo partly drawn) [Compound 38, BocNH-P3(t-BuGly)-P2(Hyp(O—CO(NH—(2-chloro-5-methyl-phenyl))))-P1(1R,2S VinylAcca)—CONHSO2Cyclopropane], for which, in assay [1], the EC50 is 100 to 1000 nM. The IC50 in assay [2] (setting [3]) is below 100 nM.
The matching figures for `C=CC1C[C@]1(NC(=O)[C@@H]1C[C@@H](OC(=O)Nc2onc(C)c2C)CN1C(=O)[C@@H](NC(=O)OC(C)(C)C)C(C)(C)C)C(=O)NS(=O)(=O)C1CC1` (stereo partly drawn) [Compound 70, BocNH-P3(t-BuGly)-P2(Hyp(O—CO(NH—(3,4-Dimethyl-isoxazol-5-yl))))-P1(1R,2S VinylAcca)—CONHSO2Cyclopropane]: above 10000 nM and 100 to 1000 nM.
For the compound `C=CC1C[C@]1(NC(=O)[C@@H]1C[C@@H](OC(=O)Nc2ccccc2C(C)(C)C)CN1C(=O)[C@@H](NC(=O)OC(C)(C)C)C(C)(C)C)C(=O)NS(=O)(=O)C1CC1` (stereo partly drawn) [Compound 17, BocNH-P3(t-BuGly)-P2(Hyp(O—CO(NH—(2-tert-butyl-phenyl))))-P1(1R,2S VinylAcca)—CONHSO2Cyclopropane], in assay [1], the EC50 was in the range of 1000 to 10000 nM. For the same compound, the IC50 in assay [2] (setting [3]) lay within 100 to 1000 nM.
